Test results taken from US10632177B2, “Myoblast differentiation promoter” (NITTA GELATIN INC., priority 2012, dated 2020).
Non-standard residues stand in square brackets, D forms with d. No end group written: not given here. Hyp = O=C(O)[C@@H]1C[C@@H](O)CN1

Test system: C2C12 myoblast
Assay: Myoblast differentiation promotion test in myoblast culture (Western blotting of differentiation markers)
Type: cell-based, mouse
Details: Western blot band, numerical value in relation to 100 = control, 100 μM final concentration, eight days exposure
Description: Myoblast Differentiation Promotion Test in Myoblast Culture
For culture of C2C12 myoblast derived from mouse, a D-MEM culture medium containing 10% FBS, 100 units/mL sodium penicillin G, 100 μg/mL streptomycin and 1.0 g/L NaHCO3 (D-MEM culture medium (10% FBS, +P/S)) was used. Culture was conducted in an incubator at 37° C. containing 95% air and 5% CO2. In the condition that C2C12 myoblast was 90% confluent, the culture medium was replaced by a D-MEM culture medium including 2% horse serum (HS), 100 units/mL sodium penicillin G, 100 μg/mL streptomycin and 1.0 g/L NaHCO3 (D-MEM culture medium (2% HS+P/S)), and then the D-MEM culture medium (2% HS+P/S) replacement was repeated every two days to lead to differentiation into myotube cells. The peptides of Examples 1 to 21 and Comparative Examples 1 to 3 were added in a final concentration of 100 μM to the culture medium every the culture medium replacement, and cells were continuously exposed thereto for eight days.
The Western blotting method was conducted in the following procedure. The cells used for protein measurement were washed twice with PBS at the time of recovery, and the cells were scraped with a cell scraper and transferred to a tube, and centrifuged at 4° C. and at 250×g for 3 minutes, and then PBS was completely removed. For each tube, the cells were suspended in 100 μL of a buffer (20 mM HEPES-NaOH (pH 7.5), 0.5% NP-40, 1 mM EDTA, 100 μM AEBSF, 1 μg/mL aprotinin, 10 μg/mL leupeptin, 1 mM DTT, 1 mM sodium ortho-vanadate, 10 mM sodium fluoride, 10 μM ammonium molybdate, 10 mM sodium pyrophosphate), and then crushed under ice cooling for 5 seconds three times for each sample by using an ultrasonic disperser, followed by quantification of the amount of a protein. Quantification of the amount of a protein was conducted according to the method of Bradford using bovine serum albumin as a standard protein. After end of SDS-PAGE, a blotting device was used to conduct electro-transferring at 1.5 mA per 1 cm^2 of a membrane for 1 hour on a PVDF membrane equilibrated with methanol and subjected to pre-wetting by infiltration with a transfer buffer (48 mM Tris, 39 mM glycine). After end of the transferring, the PVDF membrane was blocked with PBS (−) containing 6% skim milk for 1 hour. A primary antibody was diluted in the following manner, and an antigen-antibody reaction was conducted overnight at 4° C. A peroxidase-conjugated secondary antibody against each primary antibody was diluted in PBS (−) containing 6% skim milk in the ratios: mouse anti-myosin heavy chain monoclonal antibody (MF20) culture supernatant 1/2000, mouse anti-tropomyosin monoclonal antibody (CH1) culture supernatant 1/2000, rabbit anti-GAPDH polyclonal antibody 1/3000, peroxidase-conjugated anti-mouse IgG 1/5000, and peroxidase-conjugated anti-rabbit IgG 1/2000, allowed to react for 30 minutes, and washed three times with PBS (−) for 10 minutes. Then the membrane was immersed in Immobilon™ Western Chemiluminescent HRP Substrate for 3 minutes, and detected by LAS-4000 (GE Healthcare, Buckinghamshire, UK). A band was converted into numbers by imageJ, and expressed in a numerical value in relation to 100 which was the value of the control.

| Substance | Myosin heavy chain | Tropomyosin |
| --- | --- | --- |
| Hyp-Gly [Example 7] | 334 | 419 |
| Ala-[Hyp]-Gly [Example 1] | 218 | 191 |
| Gly-Pro-[Hyp] [Example 5] | 217 | 165 |
| Leu-Hyp [Example 3] | 143 | 195 |
| Ala-Hyp [Comparative Example 1, reference compound] | 62 | 44 |
| Pro-Hyp [Example 8] | 278 | 307 |
| Glu-Hyp [Example 4] | 214 | 140 |
| [Hyp]-Gly-Pro [Example 2] | 166 | 181 |
| Pro-Ala [Example 6] | 131 | 169 |
